Test results from US10251394B2, “Molecules having pesticidal utility, and intermediates, compositions, and processes, related thereto” (Dow AgroSciences LLC, priority 2016, dated 2019).

Assays:
[1] = tested on: Cabbage Looper (Trichoplusia ni); assay: Bioassay on Cabbage Looper (CL), 128-well diet tray assay; assay type: in vivo; conditions: for pest or weed control at 50 µg/cm2: Cabbage Looper, Table ABC, read-out: CL rating
Description: (§1) Example A: Bioassays on Beet Armyworm (Spodoptera Exigua, LAPHEG) (“BAW”), Corn Earworm (Helicoverpa Zea, HELIZE) (“CEW”), and Cabbage Looper (Trichoplusia Ni, TRIPNI) (“CL”)
(§2) Certain molecules disclosed in this document were tested against BAW, CEW, and CL using procedures described in the following examples. In the reporting of the results, the “BAW, CEW, & CL Rating Table” was used (See Table Section).
Bioassays on CL were conducted using a 128-well diet tray assay. One to five second instar CL larvae were placed in each well (3 mL) of the diet tray that had been previously filled with 1 mL of artificial diet to which 50 μg/cm^2 of the test molecule (dissolved in 50 μL of 90:10 acetone-water mixture) had been applied (to each of eight wells) and then allowed to dry. Trays were covered with a clear self-adhesive cover and held at 25° C., 14:10 light-dark for five to seven days. Percent mortality was recorded for the larvae in each well; activity in the eight wells was then averaged. The results are indicated in the table entitled “Table ABC: Biological Results” (See Table Section).
(§3) Bioassays on BAW and CL were conducted according to the procedures outlined in Example A: Bioassays on Beet Armyworm (“BAW”) and Cabbage Looper (“CL”) using the indicated concentrations.

[2] = tested on: Beet Armyworm (Spodoptera exigua); assay: Bioassay on Beet Armyworm (BAW), 128-well diet tray assay; assay type: in vivo; conditions: for pest or weed control at 50 µg/cm2: Beet Armyworm, Table ABC, read-out: BAW rating
Description: as §1, §2
Bioassays on BAW were conducted using a 128-well diet tray assay. One to five second instar BAW larvae were placed in each well (3 mL) of the diet tray that had been previously filled with 1 mL of artificial diet to which 50 μg/cm^2 of the test molecule (dissolved in 50 μL of 90:10 acetone-water mixture) had been applied (to each of eight wells) and then allowed to dry. Trays were covered with a clear self-adhesive cover and held at 25° C., 14:10 light-dark for five to seven days. Percent mortality was recorded for the larvae in each well; activity in the eight wells was then averaged. The results are indicated in the table entitled “Table ABC: Biological Results” (See Table Section).
as §3

| Compound | pest or weed control at 50 µg/cm2 [1] [%] | pest or weed control at 50 µg/cm2 [2] [%] | also measured |
| --- | --- | --- | --- |
| C=CCON(CC(F)(F)F)C(=O)[C@@H](C)NC(=O)c1ccc(/C(F)=C/C(c2cc(Cl)c(Cl)c(Cl)c2)C(F)(F)F)cc1C(F)(F)F (stereo partly drawn) [F27, N—((R)-1-((Allyloxy)(2,2,2-trifluoroethyl)amino)-1-oxopropan-2-yl)-4-((Z)-1,4,4,4-tetrafluoro-3-(3,4,5-trichlorophenyl)but-1-en-1-yl)-2-(trifluoromethyl)benzamide] | 50 to 100 | 50 to 100 | – |
| Cc1cc(/C(F)=C/C(c2cc(Cl)c(Cl)c(Cl)c2)C(F)(F)F)ccc1C(=O)NC1(C(=O)NCC(F)(F)F)CC1 (centres unmarked) [F8, (Z)-2-Methyl-4-(1,4,4,4-tetrafluoro-3-(3,4,5-trichlorophenyl)but-1-en-1-yl)-N-(1-((2,2,2-trifluoroethyl)carbamoyl)cyclopropyl)benzamide] | 50 to 100 | 50 to 100 | – |
| C=Cc1cc(/C(F)=C/C(c2cc(Cl)c(Cl)c(Cl)c2)C(F)(F)F)ccc1C(=O)NCC(=O)NCC(F)(F)F (centres unmarked) [F200, (Z)—N-(2-Oxo-2-((2,2,2-trifluoroethyl)amino)ethyl)-4-(1,4,4,4-tetrafluoro-3-(3,4,5-trichlorophenyl)but-1-en-1-yl)-2-vinylbenzamide] | 50 to 100 | 50 to 100 | – |
| CC[C@@H](NC(=O)c1ccc(/C(F)=C/C(c2cc(Cl)c(Cl)c(Cl)c2)C(F)(F)F)cc1C(F)(F)F)C(N)=O (stereo partly drawn) [F126, N—((R)-1-Amino-1-oxobutan-2-yl)-4-((Z)-1,4,4,4-tetrafluoro-3-(3,4,5-trichlorophenyl)but-1-en-1-yl)-2-(trifluoromethyl)benzamide] | 50 to 100 | 50 to 100 | – |
| C=CCNC(=O)[C@@H](C)NC(=O)c1ccc(/C(F)=C/C(c2cc(Cl)c(Cl)c(Cl)c2)C(F)(F)F)cc1C(F)(F)F (stereo partly drawn) [F11, N—((R)-1-(Allylamino)-1-oxopropan-2-yl)-4-((Z)-1,4,4,4-tetrafluoro-3-(3,4,5-trichlorophenyl)but-1-en-1-yl)-2-(trifluoromethyl)benzamide] | 50 to 100 | 50 to 100 | – |
| COc1ccc(C(/C=C(\F)c2ccc(C(=O)NCC(=O)NCC(F)(F)F)c(C(F)(F)F)c2)C(F)(F)F)cc1Cl (centres unmarked) [F158, (Z)-4-(3-(3-Chloro-4-methoxyphenyl)-1,4,4,4-tetrafluorobut-1-en-1-yl)-N-(2-oxo-2-((2,2,2-trifluoroethyl)amino)ethyl)-2-(trifluoromethyl)benzamide] | 50 to 100 | 50 to 100 | – |
| Cc1cc(C(/C=C(\F)c2ccc(C(=O)NCC(=O)N(C)CC(F)(F)F)c(C(F)(F)F)c2)C(F)(F)F)ccc1Cl (centres unmarked) [PF47, (Z)-4-(3-(4-Chloro-3-methylphenyl)-1,4,4,4-tetrafluorobut-1-en-1-yl)-N-(2-(methyl(2,2,2-trifluoroethyl)amino]-2-oxoethyl)-2-(trifluoromethyl)benzamide] | 50 to 100 | 50 to 100 | – |
| C[C@@H](NC(=O)c1ccc(/C(F)=C/C(c2cc(Cl)c(Cl)c(Cl)c2)C(F)(F)F)cc1Br)C(=O)N(C)CC(F)(F)F (stereo partly drawn) [F50, 2-Bromo-N—((R)-1-(methyl(2,2,2-trifluoroethyl)amino)-1-oxopropan-2-yl)-4-((Z)-1,4,4,4-tetrafluoro-3-(3,4,5-trichlorophenyl)but-1-en-1-yl)benzamide] | 50 to 100 | 50 to 100 | – |
| Cc1cc(C(/C=C(\F)c2ccc(C(=O)N[C@H](C)C(=O)NCC(F)(F)F)c(C(F)(F)F)c2)C(F)(F)F)ccc1Cl (some centres unmarked) [PF48] | 50 to 100 | 50 to 100 | – |
| C[C@@H](NC(=O)c1ccc(/C(F)=C/C(c2cc(Cl)c(Cl)c(Cl)c2)C(F)(F)F)cc1C(F)(F)F)C(=O)NCCC1CC1 (stereo partly drawn) [F12, N—((R)-1-((2-Cyclopropylethyl)amino)-1-oxopropan-2-yl)-4-((Z)-1,4,4,4-tetrafluoro-3-(3,4,5-trichlorophenyl)but-1-en-1-yl)-2-(trifluoromethyl)benzamide] | 50 to 100 | 50 to 100 | – |
| O=C(N[C@@H]1CON(CC(F)(F)F)C1=O)c1ccc(/C(F)=C/C(c2cc(Cl)c(Cl)c(Cl)c2)C(F)(F)F)cc1Br (stereo partly drawn) [F198, 2-Bromo-N—((R)-3-oxo-2-(2,2,2-trifluoroethyl)isoxazolidin-4-yl)-4-((Z)-1,4,4,4-tetrafluoro-3-(3,4,5-trichlorophenyl)but-1-en-1-yl)benzamide] | 50 to 100 | 50 to 100 | – |
| O=C(CNC(=O)c1ccc(/C(F)=C/C(c2cc(Cl)c(Cl)c(Cl)c2)C(F)(F)F)cc1)NCC(F)(F)F (centres unmarked) [FC1, (Z)—N-(2-Oxo-2-((2,2,2-trifluoroethyl)amino)ethyl)-4-(1,4,4,4-tetrafluoro-3-(3,4,5-trichlorophenyl)but-1-en-1-yl)benzamide] | – | – | mortality at 0.05 µg/cm2 ([1]; 168 h, 0.05 μg/cm^2 on artificial diet, second instar larvae, five to seven days, read-out: CL Percent control (or mortality)): 0%; mortality at 0.5 µg/cm2 ([1]; 168 h, 0.5 μg/cm^2 on artificial diet, second instar larvae, five to seven days, read-out: CL Percent control (or mortality)): 100%; mortality at 5 µg/cm2 ([1]; 168 h, 5 μg/cm^2 on artificial diet, second instar larvae, five to seven days, read-out: CL Percent control (or mortality)): 100%; mortality at 0.05 µg/cm2 ([2]; 168 h, 0.05 μg/cm^2 on artificial diet, second instar larvae, five to seven days, read-out: BAW Percent control (or mortality)): 0%; mortality at 0.5 µg/cm2 ([2]; 168 h, 0.5 μg/cm^2 on artificial diet, second instar larvae, five to seven days, read-out: BAW Percent control (or mortality)): 100%; mortality at 5 µg/cm2 ([2]; 168 h, 5 μg/cm^2 on artificial diet, second instar larvae, five to seven days, read-out: BAW Percent control (or mortality)): 100% |
| CCN(CC(F)(F)F)C(=O)[C@@H](C)NC(=O)c1ccc(/C(F)=C/C(c2cc(Cl)c(Cl)c(Cl)c2)C(F)(F)F)cc1C(F)(F)F (stereo partly drawn) [F20, N—((R)-1-(Ethyl(2,2,2-trifluoroethyl)amino)-1-oxopropan-2-yl)-4-((Z)-1,4,4,4-tetrafluoro-3-(3,4,5-trichlorophenyl)but-1-en-1-yl)-2-(trifluoromethyl)benzamide] | 50 to 100 | 50 to 100 | – |
| O=C(NC1(C(=O)NC2CC(F)(F)C2)CC1)c1ccc(/C(F)=C/C(c2cc(Cl)c(Cl)c(Cl)c2)C(F)(F)F)cc1C(F)(F)F (centres unmarked) [F101, (Z)—N-(1-((3,3-Difluorocyclobutyl)carbamoyl)cyclopropyl)-4-(1,4,4,4-tetrafluoro-3-(3,4,5-trichlorophenyl)but-1-en-1-yl)-2-(trifluoromethyl)benzamide] | 50 to 100 | 50 to 100 | – |
| C[C@@H](NC(=O)c1ccc(/C(F)=C/C(c2cc(Cl)cc(CC(F)(F)F)c2)C(F)(F)F)cc1C(F)(F)F)C(=O)NCC(F)(F)F (stereo partly drawn) [F176, 4-((Z)-3-(3-Chloro-5-(2,2,2-trifluoroethyl)phenyl)-1,4,4,4-tetrafluorobut-1-en-1-yl)-N—((R)-1-oxo-1-((2,2,2-trifluoroethyl)amino)propan-2-yl)-2-(trifluoromethyl)benzamide] | 50 to 100 | 50 to 100 | – |
| COC(=O)CC(NC(=O)c1ccc(/C(F)=C/C(c2cc(Cl)c(Cl)c(Cl)c2)C(F)(F)F)cc1C(F)(F)F)C(F)(F)F (centres unmarked) [F166, Methyl (Z)-4,4,4-trifluoro-3-(4-(1,4,4,4-tetrafluoro-3-(3,4,5-trichlorophenyl)but-1-en-1-yl)-2-(trifluoromethyl)benzamido)butanoate] | 50 to 100 | 50 to 100 | – |
| O=C(CNC(=O)c1ccc(/C(F)=C/C(c2ccc(F)c(F)c2)C(F)(F)F)cc1C(F)(F)F)NCC(F)(F)F (centres unmarked) [F215, (Z)-4-(3-(3,4-difluorophenyl)-1,4,4,4-tetrafluorobut-1-en-1-yl)-N-(2-oxo-2-((2,2,2-trifluoroethyl)amino)ethyl)-2-(trifluoromethyl)benzamide] | 50 to 100 | 50 to 100 | – |
